Laboratory results as given in US9540337B2, “Gamma-glutamyl transpeptidase inhibitors and methods of use” (The Board of Regents of the University of Oklahoma, priority 2012, dated 2017).
Values joined by “and” are separate entries in the source; they are usually repeats but may differ in a detail not shown here. Identical values can stand only once. Like-named read-outs stand apart in the source and are kept apart here.

Legend:
Human GGT1 (hGGT) [1] = molecular target: T1, Human GGT1 (hGGT) (Homo sapiens, UniProt P19440); test: L-GpNA Transpeptidation Assay with GlyGly as acceptor; type: biochemical; set-up: lacking the transmembrane domain; made in house; host or cells: Pichia pastoris; settings: for fold change in L-GpNA Kii (transpeptidation) relative to Compound 16: weaker than Compound 16
Experimental: Transpeptidation Reaction: The same assay buffer was used for both the hydrolysis reaction and the transpeptidation reaction. The transpeptidation reaction included 40 mM glycylglycine (glygly, Sigma, St. Louis, Mo.) as the acceptor. […] The concentration of L-GpNA was 3 mM for experiments in which the concentration of glygly was varied. To initiate the transpeptidation reaction, 4 mU GGT were added.
1. […] 3 and 4. […] 5 (25).
L-GpNA Transpeptidation Assay: The assay has been described previously. […] The concentration of L-GpNA was 3 mM for experiments in which the concentration of GlyGly was varied. To initiate the transpeptidation reaction, 4 mU GGT were added.

Human GGT1 (hGGT) [2] = molecular target: T1, Human GGT1 (hGGT); test: D-GpNA Hydrolysis Assay (release of pNA, 405 nm, pH 7.4); settings: for Vo (maximum velocity at zero activator) / V∞ (maximum rate at infinite activator): Hydrolysis D-GpNA, Table 3; for maximal fold induction: human
Experimental: (§1) Enzyme Isolation: Human GGT1 (P19440), lacking the transmembrane domain, was expressed in Pichia pastoris and isolated as previously described (14). […] One unit of GGT activity was defined as the amount of enzyme that released 1 μmol of paranitroaniline/min at 37° C. at pH 7.4 in the transpeptidation reaction.
The reaction was initiated with the addition of 19 mU GGT. The reaction was incubated at 37° C. and monitored continuously at 405 nm by a Bio-Rad model 680 microplate reader with Microplate Manager 5.2 software (Bio-Rad, Hercules, Calif.).
Data Analysis: Samples in each experiment were run in triplicate. Each inhibitor was evaluated in two or more independent experiments. Double reciprocal plots were generated to assess data quality and determine the correct rate equation for data fitting. Data were fitted using the proper rate equation and the Marquardt-Levenberg algorithm supplied with the Enzfitter program (BIOSOFT, Cambridge, UK). Kinetic parameters with standard errors were estimated using a simple weighting method.
Data adhering to Michaelis-Menten Kinetics were fitted to eq. 1. Data for initial rate patterns with D-, L-GpNA varied at different fixed levels of glygly were fitted to eq. […] Data for competitive and uncompetitive inhibition were fitted to eqs. 3 and 4. Data for the dependence of Vmax and Vmax/KD-GpNA on the concentration of activator were fitted using eq. 5 (25).
In eqs 1-6, Vmax are the initial and maximum rates, respectively, Ka and Kb are Michaelis constants for substrates A and B, respectively, and Kis and Kii are slope and intercept inhibition constants. In eq. 5, a is the value of Vmax or Vmax/KD-GpNA at zero activator/inhibitor, KID is the activation or inhibition constant, and KIN is a constant that causes the parameter to go to a constant value at infinite concentrations of X, the activator/inhibitor. The product a(KID/KIN) is the value of Vmax or Vmax/KD-GpNA at infinite activator/inhibitor (25). Data for noncompetitive inhibition were fitted to eq. 6. Data for the dependence of Vmax and Vmax/KD-GpNA on the concentration of activator were fitted using […].
as §1, with “hGGT” for “Human GGT1”, “described.” for “described (14).”, “reaction with L-GpNA.” for “reaction.”
D-GpNA Hydrolysis Assay: The assay was carried out as previously described. […] The reaction was initiated with the addition of 19 mU GGT as determined by the L-GpNA transpeptidation assay. The reaction was incubated at 37° C. and monitored continuously at 405 nm.

hGGT = molecular target: T2, hGGT (Homo sapiens, UniProt P19440); test: L-Glutamate Release Assay (Hydrolysis of GSH); type: biochemical; settings: for Ki: read-out: GSH Kii
T2 construct: lacking the transmembrane domain; made in house; host or cells: Pichia pastoris
Experimental: L-Glutamate Release Assay (Hydrolysis of GSH): This assay measures the production of glutamate from the hydrolysis of GSH by GGT enzyme and has been described in detail previously. The concentration of the substrate, GSH, was varied from 5 μM to 20 μM. The concentration of the inhibitors, OU749 and its analogs, were varied from 15.6 μM to 250 μM. The reaction was initiated with the addition of 10 mU hGGT. […] All compounds were also evaluated as inhibitors of glutamate dehydrogenase, the enzyme in the second half of the L-glutamate release assay. None of the compounds in this study inhibited glutamate dehydrogenase.

[3] = GlyGly varied, 3 mM L-GpNA, Table 2, read-out: Transpeptidation GlyGly Kis
[4] = Table 4, read-out: L-GpNA with GlyGly Kii
[5] = L-GpNA varied, 40 mM GlyGly, Table 2, read-out: Transpeptidation L-GpNA Kii
[6] = Table 3, read-out: Transpeptidation GlyGly Kis
[7] = Table 3, read-out: Transpeptidation L-GpNA Kii
[8] = pH 7.4, read-out: Fold Activation
[9] = read-out: activation of the Vmax for hydrolysis (V∞/Vo)

T2 sequence (P19440 381-569 limits assumed): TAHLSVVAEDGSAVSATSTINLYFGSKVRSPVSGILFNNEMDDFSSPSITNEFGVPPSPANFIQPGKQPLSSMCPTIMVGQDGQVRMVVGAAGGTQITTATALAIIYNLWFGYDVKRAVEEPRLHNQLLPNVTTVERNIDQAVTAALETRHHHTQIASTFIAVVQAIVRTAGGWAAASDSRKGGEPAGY
T2 sequence (P19440 27-380 limits assumed): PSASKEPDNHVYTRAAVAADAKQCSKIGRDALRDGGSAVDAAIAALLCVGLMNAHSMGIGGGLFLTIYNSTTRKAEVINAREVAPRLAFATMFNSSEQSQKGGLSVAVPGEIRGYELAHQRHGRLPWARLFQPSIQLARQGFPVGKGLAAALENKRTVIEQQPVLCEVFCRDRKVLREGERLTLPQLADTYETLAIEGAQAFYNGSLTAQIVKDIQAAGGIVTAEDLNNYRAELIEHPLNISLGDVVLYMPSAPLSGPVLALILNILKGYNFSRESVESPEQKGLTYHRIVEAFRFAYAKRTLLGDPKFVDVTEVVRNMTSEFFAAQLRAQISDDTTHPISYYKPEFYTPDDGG
T1 sequence (P19440 381-569 limits assumed): as the sequence (P19440 381-569 limits assumed) above
T1 sequence (P19440 27-380 limits assumed): as the sequence (P19440 27-380 limits assumed) above

Row | SMILES | Ki (Human GGT1 (hGGT) [1]; [6]) | Ki (Human GGT1 (hGGT) [1]; [7]) [µM] | Vo (maximum velocity at zero activator) (Human GGT1 (hGGT) [2]) [mM/min/nM] | V∞ (maximum rate at infinite activator) (Human GGT1 (hGGT) [2]) [mM/min/nM] | maximal fold induction (Human GGT1 (hGGT) [2]; [8]) | maximal fold induction (Human GGT1 (hGGT) [2]; [9]) | further results
1 | COc1ccc(Cc2nnc(NS(=O)(=O)c3ccc(OC)cc3)s2)cc1 [Compound 9] | – | – | – | – | – | – | Ki (Human GGT1 (hGGT) [1]; [3]): 133 ± 10.3 µM; Ki (Human GGT1 (hGGT) [1]; [4]): 149 ± 23 µM; Ki (Human GGT1 (hGGT) [2]): 3800 ± 720 µM; Ki (hGGT; GSH hydrolysis, Table 4): > 250 µM
2 | Nc1ccc(S(=O)(=O)Nc2nnc(Cc3ccccc3)s2)cc1 [Compound 25] | – | – | – | – | – | – | Ki (Human GGT1 (hGGT) [1]; Table 5, read-out: GlyGly with L-GpNA Kis): 42 ± 2 µM; Ki (Human GGT1 (hGGT) [1]; Table 5, read-out: L-GpNA with GlyGly Kii): 74 ± 4 µM; Ki (Human GGT1 (hGGT) [2]): 58 ± 6 µM; Ki (hGGT; GSH hydrolysis, Table 5): 242 ± 6 µM
3 | COc1ccc(Cc2nnc(NS(=O)(=O)c3ccc(C)cc3)s2)cc1 [Compound 2] | – | – | – | – | – | – | Ki (Human GGT1 (hGGT) [1]; [3]): 10 ± 0.4 µM; Ki (Human GGT1 (hGGT) [1]; [5]): 22.7 ± 0.5 µM; Ki (Human GGT1 (hGGT) [2]): 73.3 ± 4 µM; Ki (hGGT; GSH hydrolysis, Table 4): 506 ± 75 µM; fold less potent than OU749 in inhibiting GSH hydrolysis (hGGT; relative to OU749): 1.3 fold
4 | O=[N+]([O-])c1ccc(S(=O)(=O)Nc2nnc(Cc3cccc(Cl)c3)s2)cc1 [Compound 15] | 43.8 ± 7.7 µM | 119 ± 7.1 | 1.30 ± 0.01 | 5.86 ± 0.23 | 4.51 ± 0.05 | 3 to 6 | fold change in L-GpNA Kii (transpeptidation) relative to Compound 16 (Human GGT1 (hGGT) [1]): 2 fold
5 | N[C@H](C(=O)O)[C@@H]1CC(Cl)=NO1 [acivicin, reference compound] | – | – | – | – | – | – | kon (Human GGT1 (hGGT) [2]; pH 7.4, read-out: kon (second order rate constant)): 2.85 M⁻¹ s⁻¹; kon (Human GGT1 (hGGT) [2]; pH 7.4, read-out: kon corrected for the presence of D-GpNA): 8 M⁻¹ s⁻¹
6 | COc1ccc(Cc2nnc(NS(=O)(=O)c3ccc(C(F)(F)F)cc3)s2)cc1 [Compound 12] | – | – | – | – | – | – | Ki (Human GGT1 (hGGT) [1]; [3]): 46.3 ± 3.5 µM; Ki (Human GGT1 (hGGT) [1]; [5]): 117 ± 7.4 µM
7 | COc1ccc(Cc2nnc(NS(=O)(=O)c3ccc(N)cc3)s2)cc1 [Compound 21] | – | – | – | – | – | – | Ki (Human GGT1 (hGGT) [1]; Table 4, read-out: GlyGly with L-GpNA Kis): 10 ± 1 µM; Ki (Human GGT1 (hGGT) [1]; [4]): 36 ± 1 µM; Ki (Human GGT1 (hGGT) [2]; read-out: D-GpNA Kii, Table 4): 31 ± 1 µM; Ki (hGGT; GSH hydrolysis, Table 4): 105 ± 14 µM; fold more potent than OU749 in inhibiting GSH hydrolysis (hGGT; relative to OU749): 3.6 fold
8 | O=[N+]([O-])c1ccc(S(=O)(=O)Nc2nnc(Cc3ccc(Cl)c(Cl)c3)s2)cc1 [Compound 20] | 10 µM and 10.3 µM | – | – | – | – | – | Ki (Human GGT1 (hGGT) [2]; read-out: D-GpNA Kii, Compound 20, Table 7): 78 ± 2 µM; Ki (Human GGT1 (hGGT) [2]; read-out: Kii with D-GpNA, competitive inhibition of the hydrolysis reaction, Compound 20, competitive vs D-GpNA): 78 µM and 78.2 µM; Ki (hGGT; Compound 20, inhibition of GSH hydrolysis, Table 7): 859 ± 83 µM
9 | Cc1ccc(Cc2nnc(NS(=O)(=O)c3ccc([N+](=O)[O-])cc3)s2)cc1 [Compound 17] | 56.9 ± 8.3 µM | 113 ± 5.2 | 2.62 ± 0.79 | 11.25 ± 4.27 | 4.29 ± 2.2 | 3 to 6 | –
10 | O=[N+]([O-])c1ccc(Cc2nnc(NS(=O)(=O)c3ccc([N+](=O)[O-])cc3)s2)cc1 [Compound 14] | 81.2 ± 8.8 µM | 132 ± 5.5 | 1.27 ± 0.01 | 5.08 ± 0.41 | 4 ± 0.11 | 3 to 6 | –
11 | O=[N+]([O-])c1ccc(S(=O)(=O)Nc2nnc(Cc3ccccc3)s2)cc1 [Compound 13] | 59.6 ± 3.7 µM | 111 ± 5.5 | 1.59 ± 0.06 | 9.09 ± 0.55 | 5.72 ± 0.32 | 3 to 6 | fold change in L-GpNA Kii (transpeptidation) relative to Compound 16 (Human GGT1 (hGGT) [1]): ~2 fold
12 | O=[N+]([O-])c1ccc(S(=O)(=O)Nc2nnc(Cc3ccc(F)cc3)s2)cc1 [Compound 19] | 31.8 ± 0.7 µM | – | 1.53 ± 0.09 | 5.39 ± 0.28 | 3.52 ± 0.6 | 3 to 6 | –
